Laboratory results as given in patent publication US20150017673A1, “COMPOSITIONS AND METHODS FOR DRUG-SENSITIZATION OR INHIBITION OF A CANCER CELL” (priority 2012, published 2015).
Read-outs that look alike come from different tables or passages of the source.

Assays:
G3 cells = assay: Collagen invasion 3D assay, G3 cells; format: cell-based, human; conditions: 10 uM Rifabutin in collagen matrix, 24 hours
Protocol: The effects of rifabutin on cell invasion was assessed in a collagen invasion 3D assay. Increased interest in the use of 3D culture systems has been motivated by accumulating evidence that 3D models better reflect the microenvironment of tumors and metastases and more accurately predict therapeutic response in vivo compared with conventional 2D assays. A collagen invasion 3D assay allows the rapid and quantitative assessment of invasiveness and a means to screen for drugs which alter the invasive phenotype of tumor cells.
The CHOP-resistant G3 cell line is much more invasive in a collage invasion 3D assay than its CHOP-sensitive parent cell line (CRL2631). Collagen matrices (1 mg/ml) were prepared as previously described in Su, S. C., et al., Molecular profile of endothelial invasion of three-dimensional collagen matrices: insights into angiogenic sprout induction in wound healing. Am. J. Physiol. […] Cell invasion density was quantified by counting fixed cultures under transmitted light using an Olympus CK2 inverted microscope equipped with eyepieces displaying a 10×10 ocular grid. For each condition, four random fields were selected and the number of invading cells per high power field (HPF) was counted manually at 10× magnification, corresponding to 1 mm^2 area. […]

[1] = test system: multi-drug-resistant breast cancer cell line MDA-MB-231; assay: Cell growth assay on MDA-MB-231 cells; format: cell-based; conditions: MDA-MB-231, breast carcinoma
Protocol: (§1) Compositions were tested on CHOP-resistant G3 NHL cells that had been cultivated in RPMI medium for five days. Prior to assay, the cells were counted by haemocytometer and cell concentration standardized to 625,000 cells/ml. Test drugs were solubilized in 100% DMSO and then diluted to final assay concentration with 0.1M phosphate buffered saline (PBS) and a final DMSO concentration of 0.5%. Cells were added to assay plates containing the test drugs (rifabutin+148 ng/ml, 74 ng/ml, 37 ng/ml, or 0 ng/ml doxorubicin) and allowed to incubate for 96 hours at 37° C. and 5% CO2. The metabolic dye rezasurin was added to the wells of the assay plate at a final concentration of 20 μg/ml and the plates were incubated for an additional 24 hours. The plates were then read in a BMG Polarstar plate reader at wavelength (573-605) and the data plotted as OD versus increasing dilutions (i.e. decreasing total amounts) of rifabutin derivative concentration.
(§2) In these experiments, the following cell lines were used: CHOP-resistant NHL cell line G3, CHOP-sensitive NHL cell line CRL2631, the multi-drug resistant sarcoma cell line MES-SA-Dx5; multi-drug-resistant breast cancer cell line MDA-MB-231, multi-drug resistant ovarian carcinoma cell line SK-OV3, multi-drug resistant ovarian cancer cell line NCI/ADR-RES, drug-sensitive ovarian cancer cell line OVCAR-5, and multi-drug resistant ovarian cancer cell line OVCAR-3.
(§3) Additional cell lines used include: ovarian cancer OVCAR-8, T lymphoblastoid leukemia MOLT-4, dexamethasone-resistant multiple myeloma MM.1R, myeloid leukemia cells HL-60, osteosarcoma cells U-2 OS, and myeloma RPMI 8226.

[2] = test system: primary human fibroblasts; conditions: with and without 2 uM Dox
[3] = test system: CHOP-sensitive NHL cell line CRL2631; assay: Cell growth assay (resazurin) on CHOP-sensitive CRL2631 NHL cells; format: cell-based, human
ABCB1 pumps = ABCB1 pumps (Homo sapiens, UniProt P08183); conditions: NCI/ADR-RES and G3 cells
ABCB1 pumps, sequence (P08183 whole entry): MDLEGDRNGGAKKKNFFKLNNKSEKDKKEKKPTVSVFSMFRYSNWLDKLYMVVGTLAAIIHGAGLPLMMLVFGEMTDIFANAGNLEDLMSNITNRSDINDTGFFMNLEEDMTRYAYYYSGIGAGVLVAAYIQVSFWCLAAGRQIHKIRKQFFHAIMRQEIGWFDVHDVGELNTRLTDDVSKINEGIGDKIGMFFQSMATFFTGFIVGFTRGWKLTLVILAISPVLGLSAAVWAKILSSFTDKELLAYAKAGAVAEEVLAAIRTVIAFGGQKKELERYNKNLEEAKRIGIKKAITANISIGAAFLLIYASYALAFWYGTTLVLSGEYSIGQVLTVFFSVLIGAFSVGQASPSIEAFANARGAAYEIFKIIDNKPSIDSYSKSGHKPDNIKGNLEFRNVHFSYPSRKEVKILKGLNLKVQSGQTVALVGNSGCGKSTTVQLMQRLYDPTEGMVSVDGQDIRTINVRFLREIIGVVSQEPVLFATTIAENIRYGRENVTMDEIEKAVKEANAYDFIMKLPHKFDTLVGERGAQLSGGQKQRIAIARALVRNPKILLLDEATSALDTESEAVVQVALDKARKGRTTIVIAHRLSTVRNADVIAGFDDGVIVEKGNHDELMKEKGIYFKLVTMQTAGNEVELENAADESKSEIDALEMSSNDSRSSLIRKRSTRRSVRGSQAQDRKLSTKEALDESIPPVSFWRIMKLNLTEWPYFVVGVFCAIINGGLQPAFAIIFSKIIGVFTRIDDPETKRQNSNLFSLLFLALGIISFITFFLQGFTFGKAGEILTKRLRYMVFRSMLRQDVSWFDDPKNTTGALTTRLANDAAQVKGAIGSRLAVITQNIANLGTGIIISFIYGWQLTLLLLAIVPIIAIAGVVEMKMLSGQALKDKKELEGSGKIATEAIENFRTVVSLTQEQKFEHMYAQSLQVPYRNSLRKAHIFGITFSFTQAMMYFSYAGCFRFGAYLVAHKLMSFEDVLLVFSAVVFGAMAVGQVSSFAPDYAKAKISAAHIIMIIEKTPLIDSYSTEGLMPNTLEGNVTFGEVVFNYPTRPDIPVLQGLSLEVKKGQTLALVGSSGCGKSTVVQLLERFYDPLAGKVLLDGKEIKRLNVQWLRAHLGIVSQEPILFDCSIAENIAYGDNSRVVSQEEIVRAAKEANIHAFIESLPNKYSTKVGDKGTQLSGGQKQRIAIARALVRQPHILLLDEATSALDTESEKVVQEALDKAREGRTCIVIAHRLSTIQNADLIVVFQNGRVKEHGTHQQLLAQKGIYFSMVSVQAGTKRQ

ROS in G3 lymphoma cells = assay: Intracellular ROS (CellROX, flow cytometry) in G3 cells; format: cell-based, human; conditions: 10 uM rifabutin over time
lymphoma cell line G3 = assay: Cell growth assay (resazurin fluorescence) on CHOP-resistant G3 NHL cells; format: cell-based, human; conditions: for IC50: Homo sapiens
How it was run: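 CHOP-resistant G3 NHL cells grown five days in RPMI medium were counted by haemocytometer and set to 625,000 cells/ml. They were then added to plates holding test drug, first dissolved in 100% DMSO and diluted in 0.1M PBS to 0.5% final DMSO. Plates incubated 96 hours at 37° C. and 5% CO2. Resazurin at 20 μg/ml was added for a further 24 hours, and plates were read on a BMG Polarstar at 573-605.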

[4] = test system: multi-drug resistant sarcoma cell line MES-SA-Dx5; assay: Cell growth assay on MES-SA-Dx5 cells; format: cell-based; conditions: MES-SA-Dx5, uterus sarcoma
Protocol: as §1, §2, §3

[5] = test system: multi-drug resistant ovarian carcinoma cell line SK-OV3; assay: Cell growth assay on SK-OV3 cells; format: cell-based, human; conditions: SK-OV3, ovarian carcinoma
[6] = test system: CHOP-sensitive CRL2631 cells; assay: Prevention of the emergence of CHOP resistance; format: cell-based, human; conditions: one week CHOP+rifabutin, half (0.5×) and full (1×) doses of CHOP
Protocol: The ability of rifabutin to prevent the emergence of CHOP-resistance was determined by treating CHOP-sensitive CRL2631 cells with either CHOP alone or CHOP+rifabutin for one week. Following treatment, the cells were grown in the absence of CHOP, then their sensitivity to CHOP was assayed by retreatment with CHOP, followed by counting of viable cells. […] A 1×CHOP dose in this experiment corresponds to final concentrations of the following components: 0.83 μM 4-hydroxycyclophosphamide [4HC, a pre-activated form of cyclophosphamide], 0.057 μM doxorubicin, 0.01 μM vincristine, and 0.186 μM prednisone.

For `CO[C@H]1/C=C/O[C@@]2(C)Oc3c(C)c(O)c4c(c3C2=O)C2=NC3(CCN(CC(C)C)CC3)NC2=C(NC(=O)/C(C)=C\C=C\[C@H](C)[C@H](O)[C@@H](C)[C@@H](O)[C@@H](C)[C@H](OC(C)=O)[C@@H]1C)C4=O` [Rifabutin, rifabutin], the reduction of invasion (G3 cells) was “up to 30%”, the “Magnitude of potentiation in combination with doxorubicin” value (“Magnitude of potentiation” below) [1] was “+++ (potentiation greater than 5 fold increase)” and the “comparative cytotoxicity to normal cells” value [2] was “not toxic to normal cells”. The “sensitivity of cells to CHOP relative to a control drug” value ([3]; CHOP-sensitive cells as printed, FIG. 2B) was “enhanced the sensitivity”, the “CHOP sensitivity of low-ROS cell population” value ([3]; low-ROS CRL2631 cells, 10 uM rifabutin) was “sensitized to CHOP” and the “cell growth in the absence of CHOP” value ([3]; rifabutin alone, CRL2631) was “did not affect the growth”. For the same compound, the “inhibition of efflux pumps” value (ABCB1 pumps) was “clear inhibition of efflux pumps”, the ROS induction (ROS in G3 lymphoma cells) was “rapidly induces ROS” and the “Magnitude of potentiation” value (lymphoma cell line G3; G3, lymphoma B cells) was “+++ (potentiation greater than 5 fold increase)”. For the same compound, the IC50 (lymphoma cell line G3; analog alone, lymphoma cell line G3, read-out: IC50) was > 64 µM, the IC50 (lymphoma cell line G3; with 1 μM doxorubicin, lymphoma cell line G3, read-out: IC50 (μM) with doxorubicin (1 μM)) was 0.25 µM and the “Fold increase in potency over DOX alone” value (lymphoma cell line G3; lymphoma cell line G3) was 9.4 fold. For the same compound, the “cell growth in the absence of CHOP” value (lymphoma cell line G3; rifabutin alone, G3) was “did not affect the growth”, the “Magnitude of potentiation” value [4] was “++ (potentiation between 2.1 to 5 fold increase)” and the “Magnitude of potentiation” value [5] was “+ (potentiation between 1.2 to 2.0 fold increase)”. For the same compound, the “emergence of CHOP-resistant cells” value [6] was “significantly repress the emergence of CHOP-resistant cells”.
